In patent publication US6355799B1, “Substituted benzene compounds, process for their preparation, and herbicidal and defoliant compositions containing them” (ISK Americas Incorporated, priority 1997, dated 2002):

Legend:
Format in all cases: in vivo
[1] = system: upland rice (Oryza sp., var. Tebonnet, RICE); assay: Pre-emerge test, crop safety; details: rated 14 days after application, 0 = no damage, 100 = complete death
Method in brief: (§1)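 Compounds in acetone were track-sprayed at 187 l/ha, 15–1000 g ai/ha, onto sandy loam pots. Pre-emerge seeds were sown one day before spraying, with surface watering afterwards. Post-emerge plants were at the 2–3 leaf stage and sprayed with 0.25% v/v non-ionic surfactant. Injury was rated 0–100 at 14 days.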

[2] = system: field corn (Zea mays L., var. Dekalb 535, CORN); assay: Pre-emerge test, crop safety; details: rated 14 days after application, 0 = no damage, 100 = complete death
Method in brief: as §1

[3] = system: ivyleaf morningglory (Ipomoea hederacea, IPOHE); assay: Pre-emerge test, greenhouse herbicide activity screening; details: rated 14 days after application, 0 = no damage, 100 = complete death
Method in brief: (§2)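 Sandy loam pots; pre-emerge: sown 1 d pre-spray, surface-watered after, then bottom-watered. Post-emerge: sown 8–21 d before, 2–3 leaf stage, + 0.25% v/v NIS, bottom-watered. Acetone, 187 l/ha track spray, 15–1000 g ai/ha. 0–100 injury score, day 14.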

[4] = system: velvetleaf (Abutilon theophrasti, ABUTH); assay: as above; details: rated 14 days after application, 0 = no damage, 100 = complete death
Method in brief: as §2

[5] = system: lambsquarters (Chenopodium album, CHEAL); assay: as above; details: rated 14 days after application, 0 = no damage, 100 = complete death
Method in brief: as §2

[6] = system: johnsongrass (Sorghum halepense, SORHA); assay: as above; details: rated 14 days after application, 0 = no damage, 100 = complete death
Method in brief: as §2

[7] = system: green foxtail (Setaria viridis, SETVI); assay: as above; details: rated 14 days after application, 0 = no damage, 100 = complete death
Method in brief: as §2

[8] = system: large crabgrass (Digitaria sanguinalis, DIGSA); assay: as above; details: rated 14 days after application, 0 = no damage, 100 = complete death
Method in brief: as §2

[9] = system: barnyardgrass (Echinochloa crus-galli, ECHCG); assay: as above; details: rated 14 days after application, 0 = no damage, 100 = complete death
Method in brief: as §2

[10] = system: sicklepod (Cassia obtusifolia, CASOB); assay: as above; details: rated 14 days after application, 0 = no damage, 100 = complete death
Method in brief: as §2

[11] = system: upland rice (Oryza sp., var. Tebonnet, RICE); assay: Post-emerge test, crop safety; details: post-emerge, 14 days after application, rating scale 0-100
Method in brief: as §2

[12] = system: field corn (Zea mays L., var. Dekalb 535, CORN); assay: Post-emerge test, crop safety; details: post-emerge, 14 days after application, rating scale 0-100
Method in brief: as §2

[13] = system: ivyleaf morningglory (Ipomoea hederacea, IPOHE); assay: Post-emerge test, greenhouse herbicide activity screening; details: post-emerge, 14 days after application, rating scale 0-100
Method in brief: (§3)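 Fourteen days after spraying, crop and weed injury was graded visually from 0, no effect, to 100, every plant dead. Test substances were dissolved in acetone and applied at 15–1000 g ai/ha with a flat-fan nozzle. Application was either pre-emergence, one day after sowing, or post-emergence at the 2–3 leaf stage.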

[14] = system: velvetleaf (Abutilon theophrasti, ABUTH); assay: as above; details: post-emerge, 14 days after application, rating scale 0-100
Method in brief: as §3

[15] = system: johnsongrass (Sorghum halepense, SORHA); assay: as above; details: post-emerge, 14 days after application, rating scale 0-100
Method in brief: as §3

[16] = system: green foxtail (Setaria viridis, SETVI); assay: as above; details: post-emerge, 14 days after application, rating scale 0-100
Method in brief: as §3

[17] = system: large crabgrass (Digitaria sanguinalis, DIGSA); assay: as above; details: post-emerge, 14 days after application, rating scale 0-100
Method in brief: as §3

[18] = system: redroot pigweed (Amaranthus retroflexus, AMARE); assay: as above; details: post-emerge, 14 days after application, rating scale 0-100
Method in brief: as §3

[19] = system: barnyardgrass (Echinochloa crus-galli, ECHCG); assay: as above; details: post-emerge, 14 days after application, rating scale 0-100
Method in brief: as §3

[20] = system: sicklepod (Cassia obtusifolia, CASOB); assay: as above; details: post-emerge, 14 days after application, rating scale 0-100
Method in brief: as §3

[21] = system: redroot pigweed (Amaranthus retroflexus, AMARE); assay: Pre-emerge test, greenhouse herbicide activity screening; details: rated 14 days after application, 0 = no damage, 100 = complete death
Method in brief: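 Rating: 0–100 visual injury, 14 DAA. Application: acetone, 187 l/ha, 15–1000 g ai/ha, flat-fan track sprayer with nozzle 40–45 cm above soil or canopy. Post-emerge runs used 0.25% v/v surfactant on 2–3 leaf plants.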

## COc1c(Cl)cc(F)c(-n2c(=O)cc(C(F)(F)F)n(C)c2=O)c1NC(=O)COC(C)=O [2-117]
[1]; 63 g ai/ha
  Pre-emerge phytotoxicity rating (0-100), crop damage, RICE: 30
[1]; 250 g ai/ha
  Pre-emerge phytotoxicity rating (0-100), crop damage, RICE: 90
[2]; 63 g ai/ha
  Pre-emerge phytotoxicity rating (0-100), crop damage, CORN: 10
[2]; 250 g ai/ha
  Pre-emerge phytotoxicity rating (0-100), crop damage, CORN: 35
[3]; 63 g ai/ha
  Pre-emerge Herbicidal Activity, phytotoxicity rating (0-100), IPOHE: 100
[3]; 250 g ai/ha
  Pre-emerge Herbicidal Activity, phytotoxicity rating (0-100), IPOHE: 100
[4]; 63 g ai/ha
  Pre-emerge Herbicidal Activity, phytotoxicity rating (0-100), ABUTH: 100
[4]; 250 g ai/ha
  Pre-emerge Herbicidal Activity, phytotoxicity rating (0-100), ABUTH: 100
[5]; 63 g ai/ha
  Pre-emerge Herbicidal Activity, phytotoxicity rating (0-100), CHEAL: 100
[5]; 250 g ai/ha
  Pre-emerge Herbicidal Activity, phytotoxicity rating (0-100), CHEAL: 100
[6]; 63 g ai/ha
  Pre-emerge Herbicidal Activity, phytotoxicity rating (0-100), SORHA: 10
[6]; 250 g ai/ha
  Pre-emerge Herbicidal Activity, phytotoxicity rating (0-100), SORHA: 60
[7]; 63 g ai/ha
  Pre-emerge Herbicidal Activity, phytotoxicity rating (0-100), SETVI: 30
[7]; 250 g ai/ha
  Pre-emerge Herbicidal Activity, phytotoxicity rating (0-100), SETVI: 100
[8]; 63 g ai/ha
  Pre-emerge Herbicidal Activity, phytotoxicity rating (0-100), DIGSA: 30
[8]; 250 g ai/ha
  Pre-emerge Herbicidal Activity, phytotoxicity rating (0-100), DIGSA: 90
[9]; 63 g ai/ha
  Pre-emerge Herbicidal Activity, phytotoxicity rating (0-100), ECHCG: 10
[9]; 250 g ai/ha
  Pre-emerge Herbicidal Activity, phytotoxicity rating (0-100), ECHCG: 70
[10]; 63 g ai/ha
  Pre-emerge Herbicidal Activity, phytotoxicity rating (0-100), CASOB: 80
[10]; 250 g ai/ha
  Pre-emerge Herbicidal Activity, phytotoxicity rating (0-100), CASOB: 100
[11]; 63 g ai/ha
  phytotoxicity rating RICE: 10
[11]; 250 g ai/ha
  phytotoxicity rating RICE: 40
[12]; 63 g ai/ha
  phytotoxicity rating CORN: 5
[12]; 250 g ai/ha
  phytotoxicity rating CORN: 20
[13]; 63 g ai/ha
  phytotoxicity rating IPOHE: 90
[13]; 250 g ai/ha
  phytotoxicity rating IPOHE: 100
[14]; 63 g ai/ha
  phytotoxicity rating ABUTH: 80
[14]; 250 g ai/ha
  phytotoxicity rating ABUTH: 100
[15]; 63 g ai/ha
  phytotoxicity rating SORHA: 0
[15]; 250 g ai/ha
  phytotoxicity rating SORHA: 0
[16]; 63 g ai/ha
  phytotoxicity rating SETVI: 0
[16]; 250 g ai/ha
  phytotoxicity rating SETVI: 0
[17]; 63 g ai/ha
  phytotoxicity rating DIGSA: 0
[17]; 250 g ai/ha
  phytotoxicity rating DIGSA: 0
[18]; 63 g ai/ha
  phytotoxicity rating AMARE: 10
[18]; 250 g ai/ha
  phytotoxicity rating AMARE: 70
[19]; 63 g ai/ha
  phytotoxicity rating ECHCG: 0
[19]; 250 g ai/ha
  phytotoxicity rating ECHCG: 0
[20]; 63 g ai/ha
  phytotoxicity rating CASOB: 40
[20]; 250 g ai/ha
  phytotoxicity rating CASOB: 95
[21]; 63 g ai/ha
  Pre-emerge Herbicidal Activity, phytotoxicity rating (0-100), AMARE: 90
[21]; 250 g ai/ha
  Pre-emerge Herbicidal Activity, phytotoxicity rating (0-100), AMARE: 100

## CCOC(=O)C(=O)Nc1c(OC)c(Cl)cc(F)c1-n1c(=O)cc(C(F)(F)F)n(C)c1=O [2-118]
[1]; 63 g ai/ha
  Pre-emerge phytotoxicity rating (0-100), crop damage, RICE: 0
[1]; 250 g ai/ha
  Pre-emerge phytotoxicity rating (0-100), crop damage, RICE: 30
[2]; 63 g ai/ha
  Pre-emerge phytotoxicity rating (0-100), crop damage, CORN: 0
[2]; 250 g ai/ha
  Pre-emerge phytotoxicity rating (0-100), crop damage, CORN: 10
[3]; 63 g ai/ha
  Pre-emerge Herbicidal Activity, phytotoxicity rating (0-100), IPOHE: 10
[3]; 250 g ai/ha
  Pre-emerge Herbicidal Activity, phytotoxicity rating (0-100), IPOHE: 80
[4]; 63 g ai/ha
  Pre-emerge Herbicidal Activity, phytotoxicity rating (0-100), ABUTH: 90
[4]; 250 g ai/ha
  Pre-emerge Herbicidal Activity, phytotoxicity rating (0-100), ABUTH: 100
[5]; 63 g ai/ha
  Pre-emerge Herbicidal Activity, phytotoxicity rating (0-100), CHEAL: 90
[5]; 250 g ai/ha
  Pre-emerge Herbicidal Activity, phytotoxicity rating (0-100), CHEAL: 100
[6]; 63 g ai/ha
  Pre-emerge Herbicidal Activity, phytotoxicity rating (0-100), SORHA: 0
[6]; 250 g ai/ha
  Pre-emerge Herbicidal Activity, phytotoxicity rating (0-100), SORHA: 0
[7]; 63 g ai/ha
  Pre-emerge Herbicidal Activity, phytotoxicity rating (0-100), SETVI: 0
[7]; 250 g ai/ha
  Pre-emerge Herbicidal Activity, phytotoxicity rating (0-100), SETVI: 50
[8]; 63 g ai/ha
  Pre-emerge Herbicidal Activity, phytotoxicity rating (0-100), DIGSA: 0
[8]; 250 g ai/ha
  Pre-emerge Herbicidal Activity, phytotoxicity rating (0-100), DIGSA: 20
[9]; 63 g ai/ha
  Pre-emerge Herbicidal Activity, phytotoxicity rating (0-100), ECHCG: 0
[9]; 250 g ai/ha
  Pre-emerge Herbicidal Activity, phytotoxicity rating (0-100), ECHCG: 0
[10]; 63 g ai/ha
  Pre-emerge Herbicidal Activity, phytotoxicity rating (0-100), CASOB: 90
[10]; 250 g ai/ha
  Pre-emerge Herbicidal Activity, phytotoxicity rating (0-100), CASOB: 40
[11]; 63 g ai/ha
  phytotoxicity rating RICE: 10
[11]; 250 g ai/ha
  phytotoxicity rating RICE: 10
[12]; 63 g ai/ha
  phytotoxicity rating CORN: 10
[12]; 250 g ai/ha
  phytotoxicity rating CORN: 20
[13]; 63 g ai/ha
  phytotoxicity rating IPOHE: 50
[13]; 250 g ai/ha
  phytotoxicity rating IPOHE: 90
[14]; 63 g ai/ha
  phytotoxicity rating ABUTH: 60
[14]; 250 g ai/ha
  phytotoxicity rating ABUTH: 80
[15]; 63 g ai/ha
  phytotoxicity rating SORHA: 0
[15]; 250 g ai/ha
  phytotoxicity rating SORHA: 0
[16]; 63 g ai/ha
  phytotoxicity rating SETVI: 0
[16]; 250 g ai/ha
  phytotoxicity rating SETVI: 0
[17]; 63 g ai/ha
  phytotoxicity rating DIGSA: 0
[17]; 250 g ai/ha
  phytotoxicity rating DIGSA: 0
[18]; 63 g ai/ha
  phytotoxicity rating AMARE: 30
[18]; 250 g ai/ha
  phytotoxicity rating AMARE: 30
[19]; 63 g ai/ha
  phytotoxicity rating ECHCG: 0
[19]; 250 g ai/ha
  phytotoxicity rating ECHCG: 0
[20]; 63 g ai/ha
  phytotoxicity rating CASOB: 0
[20]; 250 g ai/ha
  phytotoxicity rating CASOB: 30
[21]; 63 g ai/ha
  Pre-emerge Herbicidal Activity, phytotoxicity rating (0-100), AMARE: 40
[21]; 250 g ai/ha
  Pre-emerge Herbicidal Activity, phytotoxicity rating (0-100), AMARE: 100
